B1: CP1: circular permutation of UGT76G1 enzyme (SEQ ID NO: 3) (protein)
chain: MNWQILKEILGKMIKQTKASSGVIWNSFKELEESELETVIREIPAPSFLIPLPKHLTASSSSLLDHDRTVFQWLDQQPPSSVLYVSFGSTSEVDEKDFLEIARGLVDSKQSFLWVVRPGFVKGSTWVEPLPDGFLGERGRIVKWVPQQEVLAHGAIGAFWTHSGWNSTLESVCEGVPMIFSDFGLDQPLNARYMSDVLKVGVYLENGWERGEIANAIRRVMVDEEGEYIRQNARVLKQKADVSLMKGGSSYESLESLVSYISSLENKTETTVRRRRRIILFPVPFQGHINPILQLANVLYSKGFSITIFHTNFNKPKTSNYPHFTFRFILDNDPQDERISNLPTHGPLAGMRIPIINEHGADELRRELELLMLASEEDEEVSCLITDALWYFAQSVADSLNLRRLVLMTSSLFNFHAHVSLPQFDELGYLDPDDKTRLEEQASGFPMLKVKDIKSAYS
modifications: CP1 amino acid sequence

What was measured:
[1] = Sensory evaluation (taste test) of rebaudiosides against sucrose controls; assay type: in vivo; conditions: rebaudioside 300 ppm in bottled water, room temperature; vs 1.0%, 3.0%, 6.0% sucrose (w/v); panel of 13 volunteer human subjects
Method: A sensory evaluation of rebaudiosides was performed using sucrose as a control. The sucrose sample was purchased from Sigma-Aldrich and was used to prepared control samples at three different concentrations of 1.0%, 3.0%, and 6.0% sucrose in bottled water (w/v) at room temperature. The rebaudioside was prepared at 300 ppm for sensory evaluation by adding a corresponding mass into 1000 mL of bottled water. The mixture was stirred at room temperature and the steviol glycoside sample was then evaluated against several control sucrose samples at 1.0%, 3.0%, and 6.0% by a panel of 13 volunteer human subjects.

[2] = relative to table sugar (sucrose); cited from earlier work
[3] = In vitro conversion of Reb D4 to Reb M by recombinant UGT polypeptides, HPLC analysis; assay type: biochemical; conditions: 10 μg polypeptide, 1 mg/ml Reb D4, 1 mM UDP-glucose, 30° C., 30 min and 1 hr; compared with UGT76G1
Method: In this Example, to confirm the conversion of Reb D4 to rebaudioside M in vitro, the UGT76G1, CP1 and enzyme mutants were assayed using Reb D4 as the steviol glycoside substrate. The recombinant polypeptide (10 μg) was tested in a 200 μL in vitro reaction system. The reaction system contained 50 mM potassium phosphate buffer, pH 7.2, 3 mM MgCl2, 1 mg/ml steviol glycoside substrate, and 1 mM UDP-glucose. The reaction was performed at 30° C. and terminated by adding 200 μL of 1-butanol. The samples were extracted three times with 200 μL of 1-butanol. The pooled fraction was dried and dissolved in 70 μL of 80% methanol for high-performance liquid chromatography (HPLC) analysis. Rebaudioside D4 were used as substrate. HPLC analysis was performed using a Dionex UPLC ultimate 3000 system (Sunnyvale, Calif.), including a quaternary pump, a temperature controlled column compartment, an auto sampler and a UV absorbance detector. Synergi Hydro-RP column with guard column was used for the characterization of steviol glycosides. Acetonitrile in water was used for elution in HPLC analysis. The detection wavelength was 210 nm.

Molecule	Fold increase in sweetness relative to sucrose [1] [fold]	further results
C=C1C[C@@]23CC[C@H]4[C@@](C)(CCC[C@@]4(C)C(=O)OC4OC(CO)C(O)C(OC5OC(CO)C(O)C(O)C5O)C4OC4OC(CO)C(O)C(O)C4O)[C@@H]2CC[C@]1(O)C3 (some centres unmarked) [Reb WB2]	79	–
C=C1C[C@@]23CC[C@H]4[C@@](C)(CCC[C@@]4(C)C(=O)O[C@@H]4O[C@H](CO)[C@@H](O)[C@H](O)[C@H]4O)[C@@H]2CC[C@]1(O[C@@H]1O[C@H](CO)[C@@H](O)[C@H](O)[C@H]1O[C@@H]1O[C@H](CO)[C@@H](O)[C@H](O)[C@H]1O)C3 [stevioside]	–	sweetness relative to sucrose (times sweeter than sucrose) [2]: 100-150 times
C=C1C[C@@]23CC[C@H]4[C@@](C)(CCC[C@@]4(C)C(=O)OC4OC(CO)C(O)C(OC5OC(CO)C(O)C(O)C5O)C4OC4OC(CO)C(O)C(O)C4O)[C@@H]2CC[C@]1(OC1OC(CO)C(O)C(O)C1O)C3 (some centres unmarked) [Reb WB1]	133	–
C=C1C[C@@]23CC[C@H]4[C@@](C)(CCC[C@@]4(C)C(=O)OC4OC(CO)C(O)C(OC5OC(CO)C(O)C(O)C5O)C4OC4OC(CO)C(O)C(O)C4O)[C@@H]2CC[C@]1(OC1OC(CO)C(O)C(O)C1OC1OC(CO)C(O)C(O)C1O)C3 (stereo partly drawn) [Reb D4, 13-[(2-O-β-D-glucopyranosyl-β-D-glucopyranosyl)oxy] ent-kaur-16-en-19-oic acid-[(2-O-β-D-glucopyranosyl-3-O-β-D-glucopyranosyl-β-D-glucopyranosyl) ester]]	109	–
B1	–	enzymatic activity, transfer of one glucose to Reb D4 to form Reb M [3]: significantly higher enzymatic activity than UGT76G1

From US11680281B2, “Biosynthetic production of steviol glycosides and processes therefore” (Conagen Inc., priority 2016, dated 2023)
